Calls of active or inactive are those of the source.

One experiment addresses Large T antigen (Simian virus 40, UniProt P03070). It counts as functional, Betapolyomavirus macacae.
The next experiment deals with ORF 73 (Human herpesvirus 8, UniProt O40947). Nature of the experiment: KSHV LANA DNA-binding disruption – biochemical, fluorescence polarization, cherry-picked samples, dose response (AID 504725).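 Note: fluorescence polarization of a labeled DNA duplex reporting LANA DNA binding; potency is for inhibitors that block LANA binding to the DNA.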 Details: species or system Human gammaherpesvirus 8.
Another experiment deals with MEF. In words: SAR analysis of small molecule cytotoxicity of MazEF TA System activators in embryonic fibroblast (MEF) cells. [Related pubchem assays (depositor defined):AID504720, AID504743]. It counts as functional. Conditions: Mus musculus.
A further experiment addresses Mu-type opioid receptor (Homo sapiens, UniProt P35372). Nature of the experiment: Counterscreen for agonists of heterodimerization of the mu 1 (OPRM1) and delta 1 (OPRD1) opioid receptors: Luminescence-based cell-based high throughput dose response assay to identify agonists of OPRM1 homodimerization. It counts as functional. Background: A counterscreen serves to expose hits that act by an unwanted route or on another target.

A further experiment addresses T1, Galanin receptor type 3 (Homo sapiens, UniProt O60755).
T1 sequence (O60755 whole entry): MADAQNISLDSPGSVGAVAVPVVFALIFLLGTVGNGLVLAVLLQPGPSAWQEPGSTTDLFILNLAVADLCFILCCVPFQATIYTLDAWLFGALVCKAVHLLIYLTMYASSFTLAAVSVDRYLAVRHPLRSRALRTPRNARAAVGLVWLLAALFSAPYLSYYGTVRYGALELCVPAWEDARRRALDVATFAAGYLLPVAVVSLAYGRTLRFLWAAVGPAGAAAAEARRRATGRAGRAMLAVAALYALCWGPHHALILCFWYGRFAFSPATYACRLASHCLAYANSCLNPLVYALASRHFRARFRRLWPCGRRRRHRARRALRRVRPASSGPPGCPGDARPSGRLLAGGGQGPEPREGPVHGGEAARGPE
In words: Fluorescence-based cell-based primary high throughput dose response assay to identify antagonists of the Galanin Receptor 3 (GalR3). It counts as functional.

Experiment [1] in a line: viability loss in THP-1 monocytes – THP-1 cells, cytotoxicity control for Vif-APOBEC3G degradation inhibitor project, dose response (AID 1117359). It counts as functional. The note with it: THP-1.
Experiment [2] can be described thus: luciferase reporter signal suppression in cells – H4 neuroglioma cells, luminescence, dose response (AID 1990). It counts as functional, cell-based.
A short description of experiment [3]: Luminescence Cell-Based Dose Response HTS to Identify Inhibitors of 5'UTR Stem-Loop Driven Prion Protein mRNA Translation in H4 Neuroglioblastoma Cells. [Related pubchem assays: 1827 (Project Summary), 1813 (Primary HTS)]. It counts as functional.
In a further experiment the test system is BJ. In words: BJ-TERT-LT-ST fibroblast viability loss – cell-based, RAS-independent, luminescence, dose response (AID 1935).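 Note: BJ fibroblasts immortalized with TERT plus LT and ST oncogenes.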 It counts as functional. The note with it: Homo sapiens.
The target in experiment [4] is Transitional endoplasmic reticulum ATPase (Homo sapiens, UniProt P55072). In words: p97 ATPase inhibitors, dose response, biochemical (AID 1534).
In experiment [5] the target is T2, Mannose-6-phosphate isomerase (Homo sapiens, UniProt P34949).
T2 sequence (P34949 whole entry): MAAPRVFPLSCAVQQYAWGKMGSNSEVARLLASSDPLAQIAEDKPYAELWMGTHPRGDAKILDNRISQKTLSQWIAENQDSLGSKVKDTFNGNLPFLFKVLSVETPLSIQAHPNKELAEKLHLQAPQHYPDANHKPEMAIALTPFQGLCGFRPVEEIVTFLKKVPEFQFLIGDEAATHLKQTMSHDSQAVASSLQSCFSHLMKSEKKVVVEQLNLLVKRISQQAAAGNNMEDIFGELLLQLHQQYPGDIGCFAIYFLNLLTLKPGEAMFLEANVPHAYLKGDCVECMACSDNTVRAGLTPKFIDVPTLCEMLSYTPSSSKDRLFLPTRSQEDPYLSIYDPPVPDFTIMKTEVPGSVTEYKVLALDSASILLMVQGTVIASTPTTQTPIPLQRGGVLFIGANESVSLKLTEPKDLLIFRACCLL
Nature of the experiment: MPI inhibition at elevated mannose 6-phosphate – biochemical, fluorescence intensity, high mannose 6-phosphate, primary screen (AID 1220).

The nature of experiment [6]: HepG2 cell cytotoxicity, dose response, cytotoxicity control for non-replicating M. tuberculosis project (AID 489018). It counts as functional. The note with it: Mycobacterium tuberculosis.
For experiment [7], the target named is Lysine-specific demethylase 4A (Homo sapiens, UniProt O75164). In words: inhibition of JMJD2A H3K9me3 demethylation – biochemical, DELFIA europium, cherry-picked samples, selectivity assay for GASC-1 inhibitor project, dose response (AID 488840).
The target in experiment [8] is T3, Sentrin-specific protease 7 (Homo sapiens, UniProt Q9BQF6).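 Note: Luminescence-based dose-response confirmation of ultra-high-throughput screening hits, measuring inhibition of SENP7.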
T3 sequence (Q9BQF6 whole entry): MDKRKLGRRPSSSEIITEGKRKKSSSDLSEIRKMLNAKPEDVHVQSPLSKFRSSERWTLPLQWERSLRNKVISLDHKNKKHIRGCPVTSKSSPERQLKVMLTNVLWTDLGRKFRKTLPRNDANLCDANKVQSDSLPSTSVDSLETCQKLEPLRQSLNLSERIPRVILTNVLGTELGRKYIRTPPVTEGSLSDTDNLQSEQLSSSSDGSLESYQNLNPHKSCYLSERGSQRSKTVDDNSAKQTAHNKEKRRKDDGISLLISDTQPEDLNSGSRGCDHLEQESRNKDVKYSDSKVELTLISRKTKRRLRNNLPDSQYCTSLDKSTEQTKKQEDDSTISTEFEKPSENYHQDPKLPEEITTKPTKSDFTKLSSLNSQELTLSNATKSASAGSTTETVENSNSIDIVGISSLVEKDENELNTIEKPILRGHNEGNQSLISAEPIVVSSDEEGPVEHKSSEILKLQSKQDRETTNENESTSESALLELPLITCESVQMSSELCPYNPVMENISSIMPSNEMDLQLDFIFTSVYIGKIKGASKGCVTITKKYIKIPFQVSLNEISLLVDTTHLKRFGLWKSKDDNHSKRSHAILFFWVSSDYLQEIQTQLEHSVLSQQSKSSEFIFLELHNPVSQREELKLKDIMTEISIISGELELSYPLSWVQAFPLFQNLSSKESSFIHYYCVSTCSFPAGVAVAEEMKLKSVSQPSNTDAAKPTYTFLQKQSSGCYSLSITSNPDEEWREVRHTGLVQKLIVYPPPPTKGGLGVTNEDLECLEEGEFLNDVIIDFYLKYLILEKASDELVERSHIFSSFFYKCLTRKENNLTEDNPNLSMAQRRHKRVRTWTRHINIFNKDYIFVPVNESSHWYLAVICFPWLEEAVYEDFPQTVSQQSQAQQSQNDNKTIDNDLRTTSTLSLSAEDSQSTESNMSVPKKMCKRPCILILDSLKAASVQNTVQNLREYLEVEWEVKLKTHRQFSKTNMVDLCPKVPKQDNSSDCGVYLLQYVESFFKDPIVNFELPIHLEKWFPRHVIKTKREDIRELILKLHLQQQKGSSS
It counts as functional.

Mu-type opioid receptor, sequence (P35372 whole entry): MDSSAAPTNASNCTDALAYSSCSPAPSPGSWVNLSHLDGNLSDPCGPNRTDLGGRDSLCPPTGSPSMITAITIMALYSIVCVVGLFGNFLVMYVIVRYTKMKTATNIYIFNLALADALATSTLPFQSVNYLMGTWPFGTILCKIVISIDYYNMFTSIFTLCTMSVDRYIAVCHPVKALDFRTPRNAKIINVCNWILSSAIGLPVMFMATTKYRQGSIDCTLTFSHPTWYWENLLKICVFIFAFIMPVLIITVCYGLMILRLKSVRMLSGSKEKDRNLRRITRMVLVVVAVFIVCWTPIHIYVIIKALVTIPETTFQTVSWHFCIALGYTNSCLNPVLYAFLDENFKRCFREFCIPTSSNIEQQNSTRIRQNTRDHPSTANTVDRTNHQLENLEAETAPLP
Transitional endoplasmic reticulum ATPase, sequence (P55072 whole entry): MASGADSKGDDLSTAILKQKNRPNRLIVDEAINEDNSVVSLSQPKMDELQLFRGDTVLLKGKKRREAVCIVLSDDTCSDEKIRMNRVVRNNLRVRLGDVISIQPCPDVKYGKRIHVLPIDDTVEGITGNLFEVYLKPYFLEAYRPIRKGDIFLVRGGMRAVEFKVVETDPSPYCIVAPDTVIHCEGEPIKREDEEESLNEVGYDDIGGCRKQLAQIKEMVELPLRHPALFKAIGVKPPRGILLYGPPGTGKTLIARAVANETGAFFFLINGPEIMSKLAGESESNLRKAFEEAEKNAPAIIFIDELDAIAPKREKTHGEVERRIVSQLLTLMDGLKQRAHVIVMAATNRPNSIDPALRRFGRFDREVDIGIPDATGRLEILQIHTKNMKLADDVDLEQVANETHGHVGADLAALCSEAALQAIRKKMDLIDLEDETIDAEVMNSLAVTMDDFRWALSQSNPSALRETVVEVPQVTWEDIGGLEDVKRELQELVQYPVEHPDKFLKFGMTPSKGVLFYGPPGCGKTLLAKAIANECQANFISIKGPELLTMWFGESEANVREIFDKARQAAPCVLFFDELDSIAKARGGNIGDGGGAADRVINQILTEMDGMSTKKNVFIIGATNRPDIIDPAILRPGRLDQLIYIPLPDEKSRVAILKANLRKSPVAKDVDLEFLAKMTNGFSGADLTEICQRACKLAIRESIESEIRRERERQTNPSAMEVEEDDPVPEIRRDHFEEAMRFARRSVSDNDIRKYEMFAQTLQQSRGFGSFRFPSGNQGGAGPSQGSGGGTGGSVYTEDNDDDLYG
Lysine-specific demethylase 4A, sequence (O75164 whole entry): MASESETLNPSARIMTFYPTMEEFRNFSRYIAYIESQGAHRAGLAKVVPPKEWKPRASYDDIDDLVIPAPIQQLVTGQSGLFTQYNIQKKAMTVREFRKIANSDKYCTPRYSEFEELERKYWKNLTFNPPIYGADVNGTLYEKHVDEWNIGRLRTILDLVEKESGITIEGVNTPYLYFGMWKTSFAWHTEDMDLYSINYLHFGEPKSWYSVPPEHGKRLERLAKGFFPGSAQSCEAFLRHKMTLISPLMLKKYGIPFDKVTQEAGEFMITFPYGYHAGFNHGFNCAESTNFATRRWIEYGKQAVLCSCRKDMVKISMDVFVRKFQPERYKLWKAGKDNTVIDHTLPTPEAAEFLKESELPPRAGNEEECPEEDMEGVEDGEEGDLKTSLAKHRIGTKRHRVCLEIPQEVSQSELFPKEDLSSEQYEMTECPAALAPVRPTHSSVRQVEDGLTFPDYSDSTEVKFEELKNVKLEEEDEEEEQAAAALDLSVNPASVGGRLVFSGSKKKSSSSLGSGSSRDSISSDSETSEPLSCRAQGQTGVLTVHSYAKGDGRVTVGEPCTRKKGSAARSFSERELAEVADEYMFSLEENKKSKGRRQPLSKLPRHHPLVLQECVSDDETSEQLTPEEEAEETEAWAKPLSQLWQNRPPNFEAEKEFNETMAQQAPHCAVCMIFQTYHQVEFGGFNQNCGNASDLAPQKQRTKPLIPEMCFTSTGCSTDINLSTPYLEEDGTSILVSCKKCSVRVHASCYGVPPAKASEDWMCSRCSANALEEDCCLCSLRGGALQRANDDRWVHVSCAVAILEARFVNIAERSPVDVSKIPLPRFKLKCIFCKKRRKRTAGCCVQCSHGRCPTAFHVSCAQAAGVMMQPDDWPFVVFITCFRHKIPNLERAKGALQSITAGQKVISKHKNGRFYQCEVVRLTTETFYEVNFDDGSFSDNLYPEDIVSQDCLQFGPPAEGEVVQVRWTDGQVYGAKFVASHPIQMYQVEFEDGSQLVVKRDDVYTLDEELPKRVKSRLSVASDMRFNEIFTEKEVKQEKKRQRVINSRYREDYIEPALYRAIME
Large T antigen, sequence (P03070 whole entry): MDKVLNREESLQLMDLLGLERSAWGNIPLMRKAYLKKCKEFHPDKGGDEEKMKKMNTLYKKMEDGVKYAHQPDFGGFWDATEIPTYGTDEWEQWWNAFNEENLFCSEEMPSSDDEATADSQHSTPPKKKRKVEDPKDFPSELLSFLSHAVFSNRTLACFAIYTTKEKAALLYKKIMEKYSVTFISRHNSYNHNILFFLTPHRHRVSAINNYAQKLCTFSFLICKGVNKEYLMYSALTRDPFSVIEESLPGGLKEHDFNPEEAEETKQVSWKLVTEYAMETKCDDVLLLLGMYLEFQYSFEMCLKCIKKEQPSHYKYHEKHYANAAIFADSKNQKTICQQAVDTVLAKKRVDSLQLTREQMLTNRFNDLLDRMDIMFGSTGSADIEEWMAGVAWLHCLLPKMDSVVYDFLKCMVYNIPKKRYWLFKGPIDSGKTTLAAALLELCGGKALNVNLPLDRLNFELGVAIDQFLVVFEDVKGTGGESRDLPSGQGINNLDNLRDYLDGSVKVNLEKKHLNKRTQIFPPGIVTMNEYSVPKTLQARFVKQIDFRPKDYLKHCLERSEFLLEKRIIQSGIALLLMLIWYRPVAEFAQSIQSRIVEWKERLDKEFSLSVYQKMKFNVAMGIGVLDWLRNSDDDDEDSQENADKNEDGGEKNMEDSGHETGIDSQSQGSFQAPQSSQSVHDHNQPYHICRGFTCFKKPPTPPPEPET
ORF 73, sequence (O40947 whole entry): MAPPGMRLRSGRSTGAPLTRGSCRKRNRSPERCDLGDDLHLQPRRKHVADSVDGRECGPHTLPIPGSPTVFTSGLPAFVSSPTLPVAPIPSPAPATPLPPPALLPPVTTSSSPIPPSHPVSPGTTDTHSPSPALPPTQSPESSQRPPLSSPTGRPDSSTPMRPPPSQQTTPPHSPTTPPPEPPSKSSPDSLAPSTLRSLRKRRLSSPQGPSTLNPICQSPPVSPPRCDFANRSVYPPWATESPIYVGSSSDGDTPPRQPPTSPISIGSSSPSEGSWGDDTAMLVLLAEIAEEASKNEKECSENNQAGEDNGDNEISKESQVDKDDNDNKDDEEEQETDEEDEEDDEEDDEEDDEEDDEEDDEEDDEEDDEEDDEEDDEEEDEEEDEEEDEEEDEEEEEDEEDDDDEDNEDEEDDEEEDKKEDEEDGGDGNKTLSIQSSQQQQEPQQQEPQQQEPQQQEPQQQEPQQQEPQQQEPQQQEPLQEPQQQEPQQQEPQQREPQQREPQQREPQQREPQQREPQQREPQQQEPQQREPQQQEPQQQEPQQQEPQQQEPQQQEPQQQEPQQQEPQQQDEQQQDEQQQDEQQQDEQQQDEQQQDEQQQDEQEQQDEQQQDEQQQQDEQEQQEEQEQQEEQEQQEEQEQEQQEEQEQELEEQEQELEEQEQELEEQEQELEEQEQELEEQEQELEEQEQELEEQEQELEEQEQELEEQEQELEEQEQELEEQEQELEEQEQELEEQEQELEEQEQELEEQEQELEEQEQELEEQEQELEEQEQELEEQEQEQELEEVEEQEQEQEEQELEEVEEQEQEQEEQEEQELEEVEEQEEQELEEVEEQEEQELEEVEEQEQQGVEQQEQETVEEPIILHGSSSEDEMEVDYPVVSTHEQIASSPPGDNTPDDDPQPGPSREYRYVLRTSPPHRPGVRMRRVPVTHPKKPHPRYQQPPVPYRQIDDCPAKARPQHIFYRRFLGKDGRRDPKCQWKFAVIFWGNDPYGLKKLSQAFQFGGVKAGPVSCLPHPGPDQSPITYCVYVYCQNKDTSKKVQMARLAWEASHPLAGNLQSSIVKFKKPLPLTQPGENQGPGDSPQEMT

Broadly, the IC50 is the concentration needed to halve the response being measured. The AC50 is the midpoint of the concentration-response curve, whichever way the signal moves. `O=C(CCN1C(=O)/C(=C\c2ccco2)SC1=S)Nc1ccc(C(=O)O)c(O)c1`: the 50% inhibitory concentration (IC50) at Large T antigen is > 100 µM (active). In addition, the AC50 on ORF 73 is 94.6 µM (active).
The term CC50 denotes the concentration giving 50% cytotoxicity. As usually defined, the EC50 is the concentration needed to bring the measured effect to its halfway point. For `O=C1C=C(c2c(O)ccc3ccccc23)c2ccccc2C1=O`, the 50% cytotoxic concentration (CC50) was 3.84 µM (active) with MEF and 7.1 µM (active) in [1]. Further, on Mu-type opioid receptor, the EC50 was > 92.4 µM (inactive). Further, the IC50 at Galanin receptor type 3 was > 3.32 µM (active).
On to `Cc1nc2c(=O)n(C)c(=O)nc-2n(C)n1`, for which the EC50 in [2] is 0.235 µM (active); in experiment [3] it was 0.251 µM (inconclusive); with BJ it was 4.95 µM (inconclusive). In addition, the half-maximal inhibitory concentration (IC50) was > 50 µM (not active) in [4] and 6.09 µM (active) in experiment [5]. Besides, the CC50 in experiment [6] was 4.16 µM (active). Also, in experiment [7], the half-maximal activity concentration (AC50) is 1.78 µM (active).
On to `Oc1nc(Nc2ccccc2Cl)cc2ccccc12`, for which, in [8], the concentration for half-maximal inhibition (IC50) was 4.7 µM (active).

Source of the values: ChEMBL document CHEMBL1201862, “PubChem BioAssay data set” (2004).
